In BindingDB's records for doi:10.1006/bbrc.1993.2130 (National Children's Medical Research Center, 1993):

Each compound was assayed against T1, Alpha-1A adrenergic receptor (Homo sapiens, UniProt P35348).
T1 sequence (P35348 whole entry): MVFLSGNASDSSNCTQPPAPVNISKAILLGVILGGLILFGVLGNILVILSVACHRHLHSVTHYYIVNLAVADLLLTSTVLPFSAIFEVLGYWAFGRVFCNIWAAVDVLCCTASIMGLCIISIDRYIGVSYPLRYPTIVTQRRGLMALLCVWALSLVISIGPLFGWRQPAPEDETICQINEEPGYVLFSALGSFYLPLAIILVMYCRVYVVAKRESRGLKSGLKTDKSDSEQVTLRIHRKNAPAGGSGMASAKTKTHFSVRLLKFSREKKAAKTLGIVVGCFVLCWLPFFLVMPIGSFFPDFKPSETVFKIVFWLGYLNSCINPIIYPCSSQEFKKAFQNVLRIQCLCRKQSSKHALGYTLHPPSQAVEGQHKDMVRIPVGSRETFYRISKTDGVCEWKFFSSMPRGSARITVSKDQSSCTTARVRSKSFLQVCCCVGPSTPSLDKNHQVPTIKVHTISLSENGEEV
In the case of `COc1ccccc1N1CCN(CCCNc2c(C)c(=O)n(C)c(=O)n2C)CC1` [Urapidil-5-methyl], the Ki is reported as 4.2 nM. Compound `COc1ccc(OC)c(C(O)C(C)N)c1` (stereo not drawn) has a Ki greater than 10000 nM. For `COc1cccc(OC)c1OCCNCC1Oc2ccccc2OC1c1ccccc1` (stereo not drawn) [NSC_185453], the Ki was 0.23 nM.
